Data published in PMC9025851, “Polyphenolic Compounds from Lespedeza bicolor Protect Neuronal Cells from Oxidative Stress” (Antioxidants, 2022).
Read-outs that look alike come from different tables or passages of the source.

Legend:
MAO-B = test system: MAO-B; parameters: method as in PMID 27575476, PMID 32087226; details: cited from earlier work
MAO-A = test system: MAO-A; parameters: method as in PMID 27575476, PMID 32087226; details: cited from earlier work
neuronal HT22 cells = test system: neuronal HT22 cells; parameters: method as in PMID 33397834; details: cited from earlier work; for Neuroprotective effect against glutamate-induced neurotoxicity: HT22 cells
Cytotoxicity, MTT assay = format: cell-based, murine; details: mouse, Neuro-2a neuroblastoma cells, read-out: Cytotoxic activity EC50
Description: The murine neuroblastoma cell line Neuro-2a (CCL-131) was purchased from American Type Culture Collection (ATCC®) (Manassas, VA, USA). Cells were cultured in Dulbecco’s Modified Eagle Medium (Biolot, St. Petersburg, Russia). The medium contained 10% fetal bovine serum (Biolot, St. Petersburg, Russia) and 1% penicillin/streptomycin (Biolot, St. Petersburg, Russia). Cells were incubated at 37 °C in a humidified atmosphere containing 5% (v/v) CO2.
Stock solutions of polyphenolic compounds were prepared in DMSO at a concentration of 10 mM. […]
We incubated Neuro-2a cells (1 × 10^4 cells/well) at 37 °C in a CO2 incubator for 24 h until they formed an adherent monolayer. Then, 20 μL of the tested solution was loaded onto the cells and incubated for 24 h. After incubation, the medium containing the polyphenolic test compounds was replaced by 100 μL of fresh medium. Then, we added 10 μL of MTT (3-(4,5-dimethylthiazol-2-yl)-2,5-diphenyltetrazolium bromide) (Sigma-Aldrich, St. Louis, MO, USA) stock solution (5 mg/mL) to each well and incubated the microplate for 4 h. Then, 100 μL of SDS-HCl solution (1 g SDS/10 mL dH2O/17 μL 6 M HCl) was added to each well, followed by incubation for 18 h. We measured the absorbance of the converted dye formazan on a Multiskan FC microplate photometer (Thermo Scientific, Waltham, MA, USA) at a wavelength of 570 nm. We performed all experiments in triplicate and expressed the cytotoxic activity as percent of living cells.

[1] = test system: PQ-treated Neuro-2a cells; assay: PQ-induced neurotoxicity, cell viability (MTT); format: cell-based, murine; details: PQ 1 mM; for Effect on percentage of living cells after treatment with PQ: compounds 0.01–10 μM, 1 h pre-treatment, MTT after 24 h; for Increase in percentage of living cells after treatment with PQ: MTT
Description: (§1) After 24 h of adhesion, Neuro-2a cells (1 × 10^4 cells/well) were treated with polyphenolic compounds at concentrations of 0.01–10 μM for 1 h. Subsequently, 1 mM of PQ, 10 μM rotenone or 80 μM of 6-OHDA (Sigma-Aldrich, St. Louis, MO, USA) were added. We used MTT assay to determine the percentage of living cells (cell viability) after 24 h of incubation. Cells incubated without inductors or with inductors were used as positive and negative control, respectively. The results are presented as percentages of the positive control value.

[2] = parameters: method as in PMID 31004693; details: 30 min; mean ± SEM, n = 3; previously published; read-out: DPPH-Scavenging Effect SC50; cited from earlier work
[3] = parameters: method as in PMID 31004693; details: mean ± SEM, n = 3; previously published; cited from earlier work
[4] = test system: PQ-treated Neuro-2a cells; assay: Mitochondrial membrane potential (TMRM) in PQ-treated cells; format: cell-based, murine; details: for Increase in mitochondrial membrane potential: compound 10 µM, PQ-treated Neuro-2a, TMRM
Description: The cells were incubated for 1 h in a 96-well plate (1 × 10^4 cells/well) with polyphenolic compounds (1 and 10 µM). Then, PQ (500 µM) was added, and the cell suspension was incubated for 1 h. Cells incubated without PQ and compounds were used as positive control, and cells with PQ alone were used as negative control. We added the tetramethylrhodamine methyl (TMRM) (Sigma-Aldrich, St. Louis, MO, USA) solution (500 nM) to each well, and incubated cells for 30 min at 37 °C. After the incubation, we measured the intensity of fluorescence with a PHERAstar FSplate reader (BMG Labtech, Ortenberg, Germany) at λex = 540 nm and λem = 590 nm. We processed the data using MARS Data Analysis v3.01R2 (BMG Labtech, Ortenberg, Germany) and presented results as percentages of the positive control value.

[5] = DPPH radical-scavenging effect; details: 30 min; DPPH• 10^−4 M in MeOH; mean ± SEM, n = 3; read-out: DPPH-Scavenging Effect SC50
Description: The 2,2-diphenyl-1-picrylhydrazyl (DPPH^•) radical-scavenging effect of polyphenolic compounds 7–11 was determined as described in [24]. Polyphenolic compounds 7, 8, 9, 10, and 11 were added to DPPH^• solution in MeOH (10^−4 M) at concentrations from 6 to 34 µM. The reacting mixture was kept in the dark for 30 min at room temperature. Then, we measured the absorbance at 517 nm using a Shimadzu UV 1240 spectrophotometer (Shimadzu, Kyoto, Japan). Equation (1) was used to calculate the DPPH^• radical-scavenging effect (%):(1) DPPH^• scavenging effect,%=A0−Ax/A0 where A0 is the absorbance of DPPH^• solution of a blank sample (without polyphenolic compounds); AX is the absorbance of DPPH^• solution in the presence of different concentrations of polyphenolic compounds.
Quercetin was used as a reference compound. All experiments were performed in triplicate. We calculated the half-maximal scavenging concentration (SC50) for polyphenolic compounds by plotting the DPPH^• scavenging effect (%) against the concentrations of polyphenolic compounds. SC50 values are given as the mean value ± SEM.

[6] = Ferric reducing antioxidant power (FRAP) assay; details: 4 min, absorbance 595 nm; mean ± SEM, n = 3
Description: We performed the FRAP assay as described in [29]. We prepared the FRAP reagent by mixing 2.5 mL of TPTZ (2,4,6-tris(2-pyridyl)-s-triazine) solution (10 mM) in 40 mM HCl and 25 mL of FeCl3 solution (20 mM) in acetate buffer solution (300 mM, pH 3.6). Polyphenolics 7–11 were added to 3 mL of FRAP reagent at concentrations from 6 to 34 µM. The mixture was kept in the dark at room temperature for 4 min. Then, we measured the absorbance at 595 nm using a Shimadzu UV 1240 spectrophotometer. Equation (2) was used to calculate the FRAP values for polyphenolic compounds 7–11:(2) FRAP=CFe/Cx where CFe is the concentration of Fe^2+ (µM) formed in the reaction; CX is the concentration of polyphenolic compounds in the reacting mixture.
The concentration of Fe^2+ (µM) formed in the reaction was determined using the calibration curve obtained for different concentrations of FeSO4·7H2O.

[7] = test system: 6-OHDA-treated Neuro-2a cells; assay: 6-OHDA-induced neurotoxicity, cell viability (MTT); format: cell-based, murine; details: 6-OHDA 80 µM, p < 0.05
Description: as §1

[8] = test system: 6-OHDA-treated Neuro-2a cells; assay: ROS level in 6-OHDA-treated cells (H2DCF-DA); format: cell-based, murine; details: 6-OHDA 80 µM; for Effect on ROS levels in 6-OHDA-treated cells: 1 h, H2DCF-DA
Description: After 24 h of adhesion, Neuro-2a cells (1 × 10^4 cells/well) were incubated with compounds (0.01–10 µM) for 1 h. Then, we added rotenone (10 μM), 6-OHDA (80 μM), or PQ (1 mM) to each well and incubated cells for 1 h, 1 h, or 3 h, respectively. To evaluate the level of intracellular ROS, we added 20 µL of 2,7-dichlorodihydrofluorescein diacetate solution ([…], H2DCF-DA, Molecular Probes, Eugene, OR, USA) to each well, so that the final concentration was 10 µM, and incubated the microplate at 37 °C for an additional 30 min. Quercetin was used as a reference compound.

COc1ccc2c(c1O)OC[C@H]1c3cc4c(cc3O[C@@H]21)OCO4 [(–)-4-hydroxy-3-methoxy-8,9-methylenedioxypterocarpan]
Inhibition of MAO-B (MAO-B): effectively inhibit
Inhibition of MAO-A (MAO-A): effectively inhibit

COc1cc2c(cc1O)OC1c3c(OC)cc(O)c(C/C=C(\C)CCC=C(C)C)c3OCC21 (centres unmarked) [8-methoxybicolosin C]
Neuroprotective effect against glutamate-induced neurotoxicity (neuronal HT22 cells): significant neuroprotective effects

CC(C)=CCC/C(C)=C/Cc1c(O)c(O)cc2c1O[C@H]1c3ccc(O)cc3OC[C@@H]21 [Compound 1, (6aR,11aR)-6a,11a-dihydrolespedezol A2]
EC50 at 24 h (Cytotoxicity, MTT assay): 72 µM
Effect on percentage of living cells after treatment with PQ [1]: did not exhibit any effect
EC50 [2]: 24.3 ± 3.7 µM
FRAP [3]: 1.78 ± 0.16 mol (Fe^2+)/mol (polyphenolic compound X)

2-geranylbicolosin A
Neuroprotective effect against glutamate-induced neurotoxicity (neuronal HT22 cells): significant neuroprotective effects

CC(C)=CCC/C(C)=C/Cc1c(O)c(O)cc(C(=O)C(=O)c2ccc(O)cc2O)c1O [Compound 5, bicoloketone]
EC50 at 24 h (Cytotoxicity, MTT assay): 100 µM
Effect on percentage of living cells after treatment with PQ [1]: significantly increased
Increase in percentage of living cells after treatment with PQ ([1]; compound 1 and 10 μM): 8–10%
Increase in mitochondrial membrane potential [4]: 23%
EC50 [2]: 26.1 ± 3 µM
FRAP [3]: 0.86 ± 0.04 mol (Fe^2+)/mol (polyphenolic compound X)

O=c1c(O)c(-c2ccc(O)c(O)c2)oc2cc(O)cc(O)c12 [Quercetin, reference compound]
EC50 [5]: 8.9 ± 0.2 µM
FRAP [6]: 5.11 ± 0.31 mol (Fe^2+)/mol (polyphenolic compound X)

CC(C)=CCC/C(C)=C/Cc1c(O)c(O)cc(C(=O)C(=O)c2cc(CC=C(C)C)c(O)cc2O)c1O [Compound 11, 5′-isoprenylbicoloketone]
EC50 [5]: 19.4 ± 2.2 µM
FRAP [6]: 1.45 ± 0.08 mol (Fe^2+)/mol (polyphenolic compound X)
EC50 at 24 h (Cytotoxicity, MTT assay): 87 µM

CC(C)=CCC/C(C)=C/Cc1c(O)c(C(=O)c2c(-c3ccc(O)cc3O)oc3c(C/C=C(\C)CCC=C(C)C)c(O)c(O)cc23)cc2c1OC1c3cc(CC=C(C)C)c(O)cc3OCC21 (centres unmarked) [Compound 8, lespebicolin B]
EC50 [5]: 26.7 ± 3.8 µM
FRAP [6]: 1.95 ± 0.19 mol (Fe^2+)/mol (polyphenolic compound X)
EC50 at 24 h (Cytotoxicity, MTT assay): > 100 µM
Effect on percentage of living cells after treatment with PQ [1]: significantly increased
Increase in percentage of living cells after treatment with PQ ([1]; compound 1 and 10 μM): 8–10%

medicarpin
Inhibition of MAO-B (MAO-B): selectively inhibited
Inhibition of MAO-A (MAO-A): did not effectively inhibit

CC(C)=CCC[C@]1(C)C=Cc2c(c(O)cc3c2O[C@H]2c4ccc(O)cc4OC[C@@H]32)O1 [Compound 3, 6aR,11aR,3′R-6a,11a-dihydrolespedezol A3]
EC50 at 24 h (Cytotoxicity, MTT assay): 44 µM
Effect on percentage of living cells after treatment with PQ [1]: significantly increased
Increase in percentage of living cells after treatment with PQ ([1]; compound 10 μM): 8%
Increase in mitochondrial membrane potential [4]: 16%
Increase in percentage of living cells after 6-OHDA treatment versus 6-OHDA-treated cells [7]: 12.9%
Decrease of ROS level compared to 6-OHDA-treated cells [8]: 4.5 times
Effect on ROS levels in 6-OHDA-treated cells [8]: significantly decreased
EC50 [2]: 23.7 ± 2.1 µM
FRAP [3]: 1.60 ± 0.08 mol (Fe^2+)/mol (polyphenolic compound X)

2-geranyl-1-methoxylespeflorin G11
Neuroprotective effect against glutamate-induced neurotoxicity (neuronal HT22 cells): significant neuroprotective effects
Apoptosis in HT22 cells (neuronal HT22 cells; by inhibiting intracellular ROS generation and mitochondrial dysfunction): attenuate

C[n+]1ccc(-c2cc[n+](C)cc2)cc1 [PQ, paraquat, reference compound]
Decrease in TMRM fluorescence ([4]; 1 h exposure of Neuro-2a cells with PQ alone): 23%

COc1cc(O)cc2c1C1Oc3c(ccc(O)c3CC=C(C)C)C1CO2 (centres unmarked) [1-methoxylespeflorin G11]
Neuroprotective effect against glutamate-induced neurotoxicity (neuronal HT22 cells): significant neuroprotective effects

O=C1O[C@H]([C@@H](O)CO)C(O)=C1O [Ascorbic acid, reference compound]
EC50 [5]: 30.5 ± 2.1 µM
FRAP [6]: 3.43 ± 0.33 mol (Fe^2+)/mol (polyphenolic compound X)

CC(C)=CCC[C@@]1(C)C=Cc2c(c(O)cc3c2O[C@H]2c4ccc(O)cc4OC[C@@H]32)O1 [Compound 2, (6aR,11aR,3′S)-6a,11a-dihydrolespedezol A3]
EC50 at 24 h (Cytotoxicity, MTT assay): 75 µM
Effect on percentage of living cells after treatment with PQ [1]: did not exhibit any effect
Increase in percentage of living cells after 6-OHDA treatment versus 6-OHDA-treated cells [7]: 8.7%
Decrease of ROS level compared to 6-OHDA-treated cells [8]: 4.5 times
Effect on ROS levels in 6-OHDA-treated cells [8]: significantly decreased
EC50 [2]: 25 ± 2.2 µM
FRAP [3]: 1.31 ± 0.02 mol (Fe^2+)/mol (polyphenolic compound X)

CC(C)=CCC/C(C)=C/Cc1c(O)c(O)cc2c1oc1c3ccc(O)cc3oc(=O)c21 [Compound 7, lespedezol A6]
EC50 [5]: 25.7 ± 3.4 µM
FRAP [6]: 1.83 ± 0.16 mol (Fe^2+)/mol (polyphenolic compound X)
EC50 at 24 h (Cytotoxicity, MTT assay): > 100 µM

COc1c(CC=C(C)C)c(O)cc2c1C1Oc3c(ccc(O)c3CC=C(C)C)C1CO2 (centres unmarked) [1-methoxyerythrabyssin II]
Neuroprotective effect against glutamate-induced neurotoxicity (neuronal HT22 cells): significant neuroprotective effects

COc1c(CC=C(C)C)c(O)cc2c1[C@@H]1Oc3c(cc(C)c(O)c3CC=C(C)C)[C@@H]1CO2 [bicolosin A]
Neuroprotective effect against glutamate-induced neurotoxicity (neuronal HT22 cells): significant neuroprotective effects
